Patent US10995068B2, “Synthetic sphingolipid-like molecules, drugs, methods of their synthesis and methods of treatment” (The Regents of the University of California, priority 2015, dated 2021)
Where “and” joins values, the source holds several entries; their conditions need not be identical. Identical values can stand only once.

Legend:
[1] = test system: CD98 (4F2hc, SLC3A2); experiment: Surface CD98 nutrient transporter down-regulation by flow cytometry; type: cell-based, murine; conditions: FL5.12 cells, surface CD98 at 3 h, flow cytometry, mean ± SEM, n ≥3
From the text: In an exemplified study, nutrient transporter down-regulation was monitored by quantifying surface levels of the amino acid transporter-associated protein, CD98, by flow cytometry. Vacuolation was scored in a range from 0 to […], as determined by a vacuolation assay described in greater detail in the Materials and Methods section below.
Cell culture studies: FL5.12 cells (murine hematopoetic cells originally obtained from Craig Thompson, Memorial Sloan Kettering Cancer Center) were maintained at 0.1-0.5 million/ml in RPMI 1640 (Mediatech) supplemented with 10% fetal calf serum (FCS, Sigma-Aldrich), 10 mM Hepes (Mediatech), 500 pg/ml recombinant IL-3 (cat #575502, Biolegend), 55 μM β-mercaptoethanol (Sigma-Aldrich), 2 mM L-glutamine (Mediatech), and antibiotics. Cells were screened for Mycoplasma every 3 months using the Look-Out Mycoplasma PCR Detection kit (cat #MP0035, Sigma).
Nutrient transporter expression: Surface CD98 (4F2hc, SLC3A2) expression was measured at 3 h using phycoerythrin (PE)-conjugated rat anti-mouse CD98 antibody (Biolegend, cat #128208); analysis was restricted to viable cells. PE conjugated Rat IgG2a, k (cat #400508, Biolegend) was used as an isotype control. For staining, 200,000 cells were pelleted, re-suspended in 100 μl FACS block (PBS with 10% FCS and 0.05% NaN3) containing 0.25 μL anti-CD98 antibody, incubated on ice for 30 min, washed twice with 1 ml FACS wash (PBS containing 2% FCS and 0.05% NaN3), and analyzed on a BD LSR II flow cytometer. Data was processed with FlowJo software (Treestar).

[2] = Heart rate by ECG telemetry in mice; type: in vivo, C57BL/6 mice; conditions: for heart rate in telemetry tracing: after injection, saline approximately 600 BPM
From the text: In more exemplary embodiments, compounds 5 and 5-P were further examined for their ability to activate multiple S1P receptors in vivo. In particular, mouse heart rate and lymphocyte sequestration were examined. Mouse heart rate decreases causing bradycardia when S1P receptor 3 is activated while in humans this effect may be mediated by S1P receptor 1. In both mice and humans, lymphocytes are sequestered when the S1P receptor 1 is activated.
As shown in the telemetry readings detailed in FIG. 36, FTY720 (B) slowed heart rate comparison to compound 5 (C) and the control (A, saline). As shown in A, after administering saline, normal sinus rhythm with clearly discernible P waves, representing atrial depolarization, and QRS complexes, representing ventricular depolarization, at regular intervals is observed. The heart rate in this tracing was approximately 600 beats per minute (BPM). […] Finally, as shown in C, for exemplary embodiment compound 5, similar to the saline injection, normal sinus rhythm with well-defined and consistent P waves and QRS complexes were present following injection. The heart rate in this tracing was approximately 600 BPM, similar to saline.
Heart rate: C57BL/6 mice are surgically implanted with DSI TA-ETAF20 electrocardiographic telemetry devices (Data Sciences International, St. Paul, Minn.). The electrocardiographic data is collected and recorded using the PhysioTel telemetry system and Dataquest A.R.T 4.0 software (DSI). The telemetry device is implanted in the mouse's abdominal cavity with biopotential leads sutured in place in the chest wall. Buprenorphine (0.05 mg/kg) is administered every 12 h after surgery for pain management and enrofloxacin (3 mg/kg) is administered 2× per day for 7 days post-surgery as an antibiotic. Mice are permitted two weeks recovery after surgery before initiation of baseline telemetry recordings. Heart rate is calculated from ECG data taken in the freely moving, conscious mice. Mice are divided into two groups of 3 mice and treated intraperitoneally with a single dose of vehicle (0.9% saline or 20% acidified DMSO in 0.9% saline), 10 mg/kg FTY720, FTY720-Phosphate, 5, or 5-P and heart rate monitored continuously for 10 h. Mice are rested for two weeks at which point the experiment is repeated with the mice assigned to the alternate group. These experiments are performed in accordance with all national or local guidelines and regulations and were approved by the UCI Institutional Animal Care and Use Committee.

| SMILES | % CD98 down-regulation [1] | heart rate in telemetry tracing [2] | decrease of heart rate ([2]; single dose 10 mg/kg intraperitoneally, compared to saline vehicle) | % CD98 down-regulation ([1]; listed as 104) | effect on heart rate ([2]; single dose 10 mg/kg intraperitoneally, compared to saline controls) |
| --- | --- | --- | --- | --- | --- |
| CCCCCCCCc1ccc(CCC(N)(CO)CO)cc1.Cl [FTY720, 2-Amino-2-[2-(4-octylphenyl)ethyl]propane 1,3-diol hydrochloride, reference compound] | 68 ± 3% | approximately 200 BPM | approximately 50% | – | – |
| CCCCCCCCc1ccc([C@H]2CCN[C@@H]2CO)cc1.Cl [Compound 5, (2S,3R)-2-(hydroxymethyl)-3-(4-octylphenyl)Pyrrolidinium chloride] | – | approximately 600 BPM | – | 54% and 54 ± 1% | no significant effect |
